Earlier results on eight compounds are cited in patent US20030022912A1, “Rapid-onset medicament for treatment of sexual dysfunction” (priority 2001, published 2003).

For the data set the following is noted: human subjects; sublingual administration; drug as free base except where a footnote notes a salt.

For the compound `COc1c2occc2cc2ccc(=O)oc12` [methoxsalen], the “sublingual Tmax” value is 0.417 h.

As to `CN1CCc2cccc3c2[C@H]1Cc1ccc(O)c(O)c1-3` [apomorphine], the “sublingual Tmax” value is 1.02 h.

As for `CN1C(=O)C(O)N=C(c2ccccc2)c2cc(Cl)ccc21` (centres unmarked) [temazepam], the “sublingual Tmax” value was 1.08 h.

Take `CCCc1nn(C)c2c(=O)[nH]c(-c3cc(S(=O)(=O)N4CCN(C)CC4)ccc3OCC)nc12` [sildenafil]: the “sublingual Tmax” value was 1 h.

Regarding `CN(C)CCCN1c2ccccc2CCc2ccc(Cl)cc21` [clomipramine], the “sublingual Tmax” value is 1.5 h.

With `C#CCN(C)[C@H](C)Cc1ccccc1` [selegiline], the “sublingual Tmax” value is 0.167 h.

Turning to `O=[N+]([O-])OCC(CO[N+](=O)[O-])O[N+](=O)[O-]` [nitroglycerin], the “sublingual Tmax” value is 0.05 h.

Consider `CC(C)NCC(O)c1ccc(NS(C)(=O)=O)cc1` (centres unmarked) [sotalol], for which the “sublingual Tmax” value was 2.1 h.
